The values that follow are results of earlier work, collected in US20230190651A1, “Topical Aerosol Foams” (ARCUTIS BIOTHERAPEUTICS, INC., priority 2021, published 2023).

Where a name gives a salt, the structure may show the parent alone.

`CC1(C)O[C@@H]2C[C@H]3[C@@H]4CCC5=CC(=O)C=C[C@]5(C)[C@H]4[C@@H](O)C[C@]3(C)[C@]2(C(=O)CO)O1` [desonide]: the “Water Solubility” value is 59 mg/L.

In the case of `CCC(=O)O[C@]1(C(=O)CCl)[C@@H](C)C[C@H]2[C@@H]3C[C@H](F)C4=CC(=O)C=C[C@]4(C)[C@@]3(F)[C@@H](O)C[C@@]21C` [halobetasol propionate], the “Water Solubility” value is 14 mg/L.

For the compound `CC(=O)N1CCN(c2ccc(OCC3COC(Cn4ccnc4)(c4ccc(Cl)cc4Cl)O3)cc2)CC1` (stereo not drawn) [ketoconazole], the “Water Solubility” value was 0.09 mg/L.

`C=C1/C(=C\C=C2/CCC[C@]3(C)[C@@H]([C@H](C)/C=C/[C@@H](O)C4CC4)CC[C@@H]23)C[C@@H](O)C[C@@H]1O` [calcipotriene]: the “Water Solubility” value is 13.5 mg/L.

Regarding `O=C(O)CCCCCCCC(=O)O` [azelaic acid], the “Water Solubility” value is 2,140 mg/liter.

Turning to `NC(N)=O` [urea], the “Water Solubility” value is recorded as 1,190,000 mg/liter.

Regarding `CCC[C@@H]1C[C@@H](C(=O)N[C@@H]([C@H]2O[C@H](SC)[C@H](OP(=O)(O)O)[C@@H](O)[C@H]2O)[C@H](C)Cl)N(C)C1` [clindamycin phosphate], the “Water Solubility” value is given as 250,000 mg/liter.

In the case of `Cc1cc(C(C)(C)C)c(O)c(C)c1CC1=NCCN1` [oxymetazoline hydrochloride], the “Water Solubility” value is 145,000 mg/liter.

In the case of ivermectin, the “Water Solubility” value was 4 mg/L.

As to `O=C(Nc1c(Cl)cncc1Cl)c1ccc(OC(F)F)c(OCC2CC2)c1` [roflumilast], the “Water Solubility” value is 0.54 mg/L.

As to `CCOC(=O)c1ccc(C#Cc2ccc3c(c2)C(C)(C)CCS3)nc1` [tazarotene], the “Water Solubility” value is 32 mg/L.

On to `CCC(=O)O[C@]1(C(=O)CCl)[C@@H](C)C[C@H]2[C@@H]3CCC4=CC(=O)C=C[C@]4(C)[C@@]3(F)[C@@H](O)C[C@@]21C` [clobetasol propionate], for which the “Water Solubility” value is 4 mg/L.
